From the NIST ThermoML archive (doi:10.1016/j.fluid.2008.03.015)
Where “and” joins values, the source holds several entries; their conditions need not be identical. Identical values can stand only once. ± gives the expanded uncertainty stated by the source.

Settings: Liquid, Closed cell (Static) method

Question: Which results are given for `ClCCCl` [1,2-dichloroethane]?
Answer: vapor or sublimation pressure (284.86 K): 5.38 ± 0.06 kPa; vapor or sublimation pressure (284.87 K): 5.37 ± 0.06 kPa; vapor or sublimation pressure (294.83 K): 8.96 ± 0.09 kPa; vapor or sublimation pressure (294.84 K): 8.95 ± 0.09 kPa; vapor or sublimation pressure (304.82 K): 14.33 ± 0.15 kPa and 14.32 ± 0.15 kPa; vapor or sublimation pressure (314.81 K): 22.18 ± 0.23 kPa; vapor or sublimation pressure (314.83 K): 22.18 ± 0.23 kPa; vapor or sublimation pressure (324.82 K): 33.28 ± 0.34 kPa; vapor or sublimation pressure (324.83 K): 33.27 ± 0.34 kPa; vapor or sublimation pressure (334.79 K): 48.45 ± 0.49 kPa; vapor or sublimation pressure (334.82 K): 48.46 ± 0.49 kPa; vapor or sublimation pressure (344.81 K): 67.97 ± 0.69 kPa; vapor or sublimation pressure (344.82 K): 67.98 ± 0.69 kPa; vapor or sublimation pressure (354.89 K): 94.95 ± 0.97 kPa and 94.94 ± 0.97 kPa

Question: Which results are given for `COC(C)(C)C` [2-methoxy-2-methylpropane]?
Answer: vapor or sublimation pressure (274.9 K): 11.59 ± 0.12 kPa; vapor or sublimation pressure (274.91 K): 11.59 ± 0.12 kPa; vapor or sublimation pressure (284.82 K): 18.55 ± 0.19 kPa; vapor or sublimation pressure (294.8 K): 28.78 ± 0.29 kPa; vapor or sublimation pressure (294.81 K): 28.78 ± 0.29 kPa; vapor or sublimation pressure (304.79 K): 43.24 ± 0.44 kPa and 43.26 ± 0.44 kPa; vapor or sublimation pressure (314.75 K): 62.95 ± 0.64 kPa; vapor or sublimation pressure (314.76 K): 62.97 ± 0.64 kPa; vapor or sublimation pressure (324.9 K): 89.66 ± 0.91 kPa and 89.69 ± 0.91 kPa; vapor or sublimation pressure (334.85 K): 124.02 ± 1.3 kPa; vapor or sublimation pressure (344.84 K): 167.14 ± 1.7 kPa; vapor or sublimation pressure (344.85 K): 167.57 ± 1.7 kPa; vapor or sublimation pressure (354.82 K): 221.79 ± 2.2 kPa and 221.39 ± 2.2 kPa

Question: For `CCOCC` [diethyl ether], which “vapor or sublimation pressure” value (255.47 K) is on record?
Answer: 10.11 ± 0.1 kPa

Question: What about the “vapor or sublimation pressure” value (255.48 K) of the same compound?
Answer: 10.13 ± 0.1 kPa

Question: What about the “vapor or sublimation pressure” value (255.5 K) of the same compound?
Answer: 10.14 ± 0.1 kPa

Question: And the “vapor or sublimation pressure” value (265.44 K)?
Answer: 17.06 ± 0.17 kPa

Question: What about the “vapor or sublimation pressure” value (265.45 K) of the same compound?
Answer: 17.07 ± 0.17 kPa

Question: And the “vapor or sublimation pressure” value (274.86 K)?
Answer: 26.9 ± 0.27 kPa

Question: And the “vapor or sublimation pressure” value (274.87 K)?
Answer: 26.91 ± 0.27 kPa

Question: And the “vapor or sublimation pressure” value (284.83 K)?
Answer: 41.98 ± 0.43 kPa

Question: And the “vapor or sublimation pressure” value (284.84 K)?
Answer: 42 ± 0.43 kPa

Question: What about the “vapor or sublimation pressure” value (294.77 K) of the same compound?
Answer: 62.89 ± 0.64 kPa

Question: And the “vapor or sublimation pressure” value (294.78 K)?
Answer: 62.93 ± 0.64 kPa

Question: What about the “vapor or sublimation pressure” value (304.75 K) of the same compound?
Answer: 91.58 ± 0.93 kPa and 91.56 ± 0.93 kPa

Question: And the “vapor or sublimation pressure” value (304.76 K)?
Answer: 91.6 ± 0.93 kPa

Question: What about the “vapor or sublimation pressure” value (314.74 K) of the same compound?
Answer: 129.3 ± 1.3 kPa and 129.45 ± 1.3 kPa

Question: What about the “vapor or sublimation pressure” value (314.75 K) of the same compound?
Answer: 129.42 ± 1.3 kPa

Question: And the “vapor or sublimation pressure” value (324.89 K)?
Answer: 179.51 ± 1.8 kPa and 179.65 ± 1.8 kPa and 179.77 ± 1.8 kPa

Question: For `CC(C)OC(C)C` [diisopropyl ether], which “vapor or sublimation pressure” value (284.93 K) is on record?
Answer: 10.74 ± 0.11 kPa and 10.75 ± 0.11 kPa

Question: And the “vapor or sublimation pressure” value (294.9 K)?
Answer: 17.21 ± 0.18 kPa

Question: And the “vapor or sublimation pressure” value (294.91 K)?
Answer: 17.21 ± 0.18 kPa

Question: And the “vapor or sublimation pressure” value (304.87 K)?
Answer: 26.57 ± 0.27 kPa

Question: What about the “vapor or sublimation pressure” value (304.89 K) of the same compound?
Answer: 26.58 ± 0.27 kPa

Question: And the “vapor or sublimation pressure” value (314.86 K)?
Answer: 39.71 ± 0.41 kPa

Question: What about the “vapor or sublimation pressure” value (314.87 K) of the same compound?
Answer: 39.72 ± 0.41 kPa

Question: What about the “vapor or sublimation pressure” value (324.85 K) of the same compound?
Answer: 57.64 ± 0.59 kPa

Question: And the “vapor or sublimation pressure” value (324.87 K)?
Answer: 57.65 ± 0.59 kPa

Question: What about the “vapor or sublimation pressure” value (334.85 K) of the same compound?
Answer: 81.41 ± 0.83 kPa and 81.42 ± 0.83 kPa

Question: And the “vapor or sublimation pressure” value (344.84 K)?
Answer: 112.36 ± 1.1 kPa

Question: And the “vapor or sublimation pressure” value (344.85 K)?
Answer: 112.39 ± 1.1 kPa

Question: What about the “vapor or sublimation pressure” value (354.87 K) of the same compound?
Answer: 151.81 ± 1.5 kPa

Question: And the “vapor or sublimation pressure” value (354.88 K)?
Answer: 151.82 ± 1.5 kPa
